Measurements published in US8901313B2, “6,5-heterocyclic propargylic alcohol compounds and uses therefor” (Genentech, Inc., priority 2011, dated 2014).
Like-named read-outs stand apart in the source and are kept apart here.

Key:
[1] = molecular target: T1, nuclear factor-kappa B (NF-kB)-inducing kinase (NIK) (Homo sapiens, UniProt Q99558); assay: NIK Enzyme Inhibition Assay (Transcreener ADP assay); format: biochemical
T1 construct: made in house; host or cells: baculovirus-infected insect cells

[2] = system: NF-kB signaling through NIK in human embryonic kidney 293 cells; assay: 293-NIK NF-kB-Luciferase reporter assay; format: cell-based
Outline: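 HEK293 cells stably carrying tetracycline-inducible NIK plus NF-kB (ELAM-1 element) firefly luciferase and constitutive TK-Renilla viability reporter. Compounds (0.2% DMSO) incubated 24 h with 1 ug/mL doxycycline; Dual Glo luminescence read, IC50 from firefly signal.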

[3] = system: human embryonic kidney 293 cells; assay: 293-NIK TK Renilla Luciferase reporter (general measure of cell viability); format: cell-based
Text: (1) The first assay was used to profile whether a test compound can inhibit the NF-kB signally through NIK inhibition without affecting cell viability. In this assay, human embryonic kidney 293 cells was stably transfected with a tetracycline-inducible NIK DNA construct containing a cytomegalovirus promoter plus two reporter DNA constructs. One reporter encoded firefly luciferase under the control of three repeats of an NF-kB response element from the ELAM-1 gene and reflects the level of NIK activity in the cells, whereas the other reporter constitutively expressed Renilla luciferase under the control of the herpes simplex virus thymidine kinase promoter and served as a general measure of cell viability. Cells were incubated with different concentrations of compounds (0.2% DMSO final) in medium containing 1 ug/mL doxycycline and 10% tet-system approved fetal bovine serum (Clontech) for 24 hours, after which the reporters' signals were detected using the Dual Glo luciferase detection system (Promega) according to the vendor's protocol. The compounds listed in Table 1 have the corresponding inhibitory value (IC50 in micromolar) for 293-NIK NF-kB-Luciferase activity (values for compounds are presented in the same order as found in Table 1): na, 0.059, na, na, na, 0.105, 0.027, na, 20, 1.2, na, 1.8, 0.0231, 0.879, 0.0361, 0.582, na, 0.142, na, 0.403, 0.059, 0.0331, na, na, 0.0573, 1.5, na, na, 0.0722, na, na, 0.589, 12.7, 3.7, 14.9, na, 0.707, 1, 0.0311, 0.332, 0.309, 0.0142, 0.051, 2.8, 0.129, na, na, 1.5, na, na, na, 1.3, 0.062, 20, 0.31, 0.104, 0.091, 0.037, 0.085, 0.279, na, 0.305, 0.064, 0.332, 0.133, 0.168, 0.217, 0.553, na and na.
The compounds in listed in Table 1 have the corresponding inhibitory value (IC50 in micromolar) for 293-NIK TK Renilla Luciferase activity: (values for compounds are presented in the same order as found in Table 1): 6.4, 3.6, 20, na, 1.6, 9.3, 18.5, na, na, 2.6, na, na, na, na, na, na, na, na, na, na, na, na, na, na, na, na, na, na, na, na, na, na, na, na, na, na, na, na, na, na, na, na, na, na, na, na, na, >20, na, na, na, 20, >20, 17, 1.3, 15.6, 0.967, 2.7, 11.2, 5.1, na, 20, 20, 20, 20, 20, 17.6, 20, na and na.

[4] = system: p52 (NF-kB2) nuclear translocation in HeLa cells; assay: NIK p52 Translocation Assay (non-classical NF-kB signaling); format: cell-based; conditions: Homo sapiens
Outline: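 HeLa cells in 10% FBS medium were exposed to compound (0.2% DMSO final) and stimulated with 100 ng/mL anti-lymphotoxin β receptor antibody for 5 h. Fixed cells were immunostained for p52 with DRAQ5 counterstain and imaged by high-content imaging. IC50 from nuclear/cytoplasmic p52 signal ratio vs concentration.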

[5] = system: REL-A (p65) nuclear translocation in HeLa cells; assay: NIK RelA Translocation Assay (classical NF-kB signaling); format: cell-based; conditions: Homo sapiens
Method: (2) A second set of cell assay was used to define the selectivity of NIK inhibitors toward inhibition of classical vs. non-classical NF-kB signaling and rely on quantification of the nuclear translocation of p52 (NF-kB2) and REL-A (p65) using high content cellular imaging. For the p52 (non-classical NF-kB signaling) nuclear translocation assay, HeLa cells were treated with different concentrations of compounds (0.2% DMSO final) in medium containing 10% fetal bovine serum and then stimulated with 100 ng/mL of an anti-lymphotoxin beta receptor antibody (R&D Systems) for 5 hours. In the REL-A nuclear translocation assay, HeLa cells were incubated with compounds (0.2% DMSO final) for 4.5 hours in medium containing 10% fetal bovine serum before stimulating them with 10 ng/mL tumor necrosis factor (TNF)-α (R&D Systems) for 30 minutes. Cells were fixed with 4% paraformaldehyde, permeabilized by adding 0.1% Triton X-100 in phosphate buffered saline, and then incubated with either 2 ug/mL anti-p52 antibody (Millipore) or 400 ng/mL anti-REL-A (p65) antibody (Santa Cruz Biotechnology). Finally, the cells were incubated with an Alexa488-labeled secondary antibody (Invitrogen) and DRAQ5 DNA stain (Biostatus). Imaging was carried out using an Opera reader (Perkin Elmer) and data are analyzed with the aid of Acapella software (Perkin Elmer). The p52 or REL-A translocation into the nucleus was quantified by the ratio of the nuclear to cytoplasmic signal intensity. The concentration of inhibitor required for 50% inhibition (IC50 values) in these cell assays were derived from the plots of signal vs. inhibitor concentration. The compounds in listed in Table 1 have the corresponding inhibitory value (IC50 in micromolar) for NIK p52 Translocation Assay (values for compounds are presented in the same order as found in Table 1, and “na” means the data for this assay is to be determined): 0.326, 0.33, na, na, na, 0.218, 0.07, na, na, na, 0.129, 7.6, 0.077, 3.4, na, 0.518, na, 0.059, 0.514, 0.127, na, na, 0.010, na, na, 0.313, 0.275, na, 0.0727, na, na, na, na, na, na, 0.194, na, 6.4, 0.22, 0.346, na, na, na and na, na, na, na, na, na, 0.447, na, 0.089, 0.479, 0.489, 0.243, 0.747, 1, na, 1.9, 0.552, 2.1, na. na, na, na, na and na.
The compounds in listed in Table 1 has the corresponding inhibitory value (IC50 in micromolar) for NIK RelA Translocation Assay (values for compounds are presented in the same order as found in Table 1): 0.326, 0.33, na, na, na, 0.218, 0.07, na, na, na, na, na, 0.129, 7.6, 0.077, 3.4, na, 0.518, na, 0.059, 0.514, 0.127, na, na, 0.010, na, na, 0.313, 0.275, na, na, 0.0727, na, na, na, na, na, na, 0.194, na, 6.4, 0.22, 0.346, na, na, na, na, na, na, na, na, na, 0.447, na, 0.089, 0.479, 0.489, 0.243, 0.747, 1, na, 1.9, 0.552, 2.1, na, na, na, na, na and na.

[6] = comparative data, Tables 16A-16D, read-out: NIK ADP (Ki)
[7] = HEK293, comparative data, Tables 16A-16D, read-out: 293-NIK NF-kB-Luciferase (IC50)
[8] = HEK293, comparative data, Tables 16A-16D, read-out: 293-NIK TK Renilla Luciferase (IC50)
[9] = HeLa, comparative data, Tables 16A-16D, read-out: NIK p52 Translocation (IC50)
[10] = HeLa, comparative data, Tables 16A-16D, read-out: NIK RelA Translocation (IC50)
[11] = purified NIK 0.2-1 nM, 10 uM ATP, fluorescence polarization, Morrison's quadratic equation, read-out: inhibitory value (Ki) for NIK
[12] = HEK293, 293 cells with tetracycline-inducible NIK, 1 ug/mL doxycycline, 24 hours, read-out: inhibitory value (IC50) for 293-NIK NF-kB-Luciferase activity
[13] = HEK293, 293 cells, constitutive Renilla luciferase, 24 hours, read-out: inhibitory value (IC50) for 293-NIK TK Renilla Luciferase activity
[14] = HeLa cells, 100 ng/mL anti-lymphotoxin beta receptor antibody, 5 hours, read-out: inhibitory value (IC50) for NIK p52 Translocation Assay
[15] = HeLa cells, compounds 4.5 hours, 10 ng/mL TNF-α 30 minutes, read-out: inhibitory value (IC50) for NIK RelA Translocation Assay

T1 sequence (Q99558 whole entry): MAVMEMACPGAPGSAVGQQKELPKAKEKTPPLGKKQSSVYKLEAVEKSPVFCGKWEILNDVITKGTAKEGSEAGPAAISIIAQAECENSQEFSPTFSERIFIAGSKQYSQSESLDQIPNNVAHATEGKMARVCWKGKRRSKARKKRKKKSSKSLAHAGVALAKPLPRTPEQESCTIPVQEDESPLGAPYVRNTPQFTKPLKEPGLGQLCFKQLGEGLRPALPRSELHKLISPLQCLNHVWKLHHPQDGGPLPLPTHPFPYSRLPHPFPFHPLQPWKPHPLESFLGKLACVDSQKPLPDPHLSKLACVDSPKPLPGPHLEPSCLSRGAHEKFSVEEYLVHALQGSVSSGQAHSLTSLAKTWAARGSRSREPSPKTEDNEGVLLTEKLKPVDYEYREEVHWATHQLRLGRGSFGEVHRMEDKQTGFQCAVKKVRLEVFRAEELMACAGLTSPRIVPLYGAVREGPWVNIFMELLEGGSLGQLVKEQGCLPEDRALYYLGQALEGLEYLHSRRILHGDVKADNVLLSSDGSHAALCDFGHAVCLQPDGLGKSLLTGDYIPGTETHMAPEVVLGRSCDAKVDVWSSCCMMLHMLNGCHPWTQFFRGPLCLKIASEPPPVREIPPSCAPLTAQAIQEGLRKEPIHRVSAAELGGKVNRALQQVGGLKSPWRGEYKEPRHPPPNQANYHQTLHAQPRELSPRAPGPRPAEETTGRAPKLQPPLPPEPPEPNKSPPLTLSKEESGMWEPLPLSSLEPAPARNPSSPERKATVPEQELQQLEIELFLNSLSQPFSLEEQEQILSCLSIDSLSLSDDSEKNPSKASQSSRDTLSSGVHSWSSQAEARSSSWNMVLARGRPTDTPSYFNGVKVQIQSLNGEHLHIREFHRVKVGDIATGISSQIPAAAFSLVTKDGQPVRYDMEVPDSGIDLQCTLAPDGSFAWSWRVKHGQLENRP

## CN(C)C(=O)c1nn(-c2ccnc(N)n2)c2cc(C#CC(C)(O)c3ncco3)ccc12 (stereo not drawn) [1-(2-aminopyrimidin-4-yl)-6-(3-hydroxy-3-(oxazol-2-yl)but-1-ynyl)-N,N-dimethyl-1H-indazole-3-carboxamide]
[1]; [6]
  Ki: 0.2 nM
[2]; [7]
  IC50: 51 nM
[3]; [8]
  IC50: 0.583 µM
[4]; [9]
  IC50: 346 nM
[5]; [10]
  IC50: > 20000 nM

## CC(O)(C#Cc1ccc2ncn(-c3ccnc(N)n3)c2c1)c1nccs1 (stereo not drawn) [4-(1-(2-aminopyrimidin-4-yl)-1H-benzo[d]imidazol-6-yl)-2-(thiazol-2-yl)but-3-yn-2-ol]
[1]; [6]
  Ki: 0.3 nM
[2]; [7]
  IC50: 27 nM
[3]; [8]
  IC50: 4.9 µM
[4]; [9]
  IC50: 70 nM
[5]; [10]
  IC50: > 20000 nM

## CC(O)(C#Cc1ccc2cnn(-c3ccnc(N)n3)c2c1)c1ncco1 (stereo not drawn) [4-(1-(2-aminopyrimidin-4-yl)-1H-indazol-6-yl)-2-(oxazol-2-yl)but-3-yn-2-ol]
[1]; [6]
  Ki: 0.3 nM
[2]; [7]
  IC50: 36 nM
[3]; [8]
  IC50: 0.514 µM
[4]; [9]
  IC50: 77 nM
[5]; [10]
  IC50: > 20000 nM

## Cc1nn(-c2ccnc(N)n2)c2cc(C#CC(C)(O)c3nccs3)ccc12 (stereo not drawn) [4-(1-(2-aminopyrimidin-4-yl)-3-methyl-1H-indazol-6-yl)-2-(thiazol-2-yl)but-3-yn-2-ol]
[1]; [6]
  Ki: 0.1 nM
[2]; [7]
  IC50: 11 nM
[3]; [8]
  IC50: 1.2 µM
[4]; [9]
  IC50: 222 nM
[5]; [10]
  IC50: > 20000 nM

## CC(O)(C#Cc1ccc2c(c1)N(c1ccnc(N)n1)CC2)c1nccs1 (stereo not drawn) [4-(1-(2-aminopyrimidin-4-yl)indolin-6-yl)-2-(thiazol-2-yl)but-3-yn-2-ol, reference compound]
[1]; [6]
  Ki: 2.7 nM
[2]; [7]
  IC50: 126 nM
[3]; [8]
  IC50: 3.9 µM
[4]; [9]
  IC50: 862 nM
[5]; [10]
  IC50: > 20000 nM

## CC(O)(C#Cc1ccc2cnn(-c3nc(N)ncc3Cl)c2c1)c1nccs1 (stereo not drawn) [Example T1-6, 4-(1-(2-amino-5-chloro-pyrimidin-4-yl)-1H-indazol-6-yl)-2-(thiazol-2-yl)but-3-yn-2-ol]
[1]; [11]
  Ki: 0.14 nM
[2]; [12]
  IC50: 105 nM
[3]; [13]
  IC50: 9.3 µM
[4]; [14]
  IC50: 218 nM
[5]; [15]
  IC50: 218 nM

## CC(O)(C#Cc1ccc2ncn(-c3ccnc(N)n3)c2c1)c1nccs1 (stereo not drawn) [Example T1-7, 4-(1-(2-aminopyrimidin-4-yl)-1H-benzo[d]imidazol-6-yl)-2-(thiazol-2-yl)but-3-yn-2-ol]
[1]; [11]
  Ki: 0.28 nM
[2]; [12]
  IC50: 27 nM
[3]; [13]
  IC50: 18.5 µM
[4]; [14]
  IC50: 70 nM
[5]; [15]
  IC50: 70 nM

## Cc1nc2ccc(C#CC(C)(O)c3nccs3)cc2n1-c1ncnc(N)n1 (stereo not drawn) [Example T1-53, 4-(1-(4-amino-1,3,5-triazin-2-yl)-2-methyl-1H-benzo[d]imidazol-6-yl)-2-(thiazol-2-yl)but-3-yn-2-ol]
[1]; [11]
  Ki: 0.4 nM
[2]; [12]
  IC50: 62 nM
[3]; [13]
  IC50: > 20 µM
[4]; [14]
  IC50: 479 nM
[5]; [15]
  IC50: 447 nM

## Cc1nn(-c2ccnc(N)n2)c2cc(C#C[C@@](C)(O)c3nccs3)c(F)cc12 [Example T1-55, (R)-4-(1-(2-aminopyrimidin-4-yl)-5-fluoro-3-methyl-1H-indazol-6-yl)-2-(thiazol-2-yl) but-3-yn-2-ol]
[1]; [11]
  Ki: 0.2 nM
[2]; [12]
  IC50: 310 nM
[3]; [13]
  IC50: 1.3 µM
[4]; [14]
  IC50: 243 nM
[5]; [15]
  IC50: 89 nM

## Cc1cnc(C(C)(O)C#Cc2ccc3c(C)nn(-c4ccnc(N)n4)c3c2)s1 (stereo not drawn) [Example T1-56, 4-(1-(2-aminopyrimidin-4-yl)-3-methyl-1H-indazol-6-yl)-2-(5-methylthiazol-2-yl)but-3-yn-2-ol]
[1]; [11]
  Ki: 1.6 nM
[2]; [12]
  IC50: 104 nM
[3]; [13]
  IC50: 15.6 µM
[4]; [14]
  IC50: 747 nM
[5]; [15]
  IC50: 479 nM

## Cc1nc(C(C)(O)C#Cc2ccc3c(C)nn(-c4ccnc(N)n4)c3c2)no1 (stereo not drawn) [Example T1-57, 4-(1-(2-aminopyrimidin-4-yl)-3-methyl-1H-indazol-6-yl)-2-(5-methyl-1,2,4-oxadiazol-3-yl)but-3-yn-2-ol]
[1]; [11]
  Ki: 2 nM
[2]; [12]
  IC50: 91 nM
[3]; [13]
  IC50: 0.967 µM
[4]; [14]
  IC50: 1000 nM
[5]; [15]
  IC50: 489 nM

## Cc1cc(C(C)(O)C#Cc2ccc3c(C(=O)N(C)C)nn(-c4ccnc(N)n4)c3c2)no1 (stereo not drawn) [Example T1-59, 1-(2-aminopyrimidin-4-yl)-6-(3-hydroxy-3-(5-methyl-isoxazol-3-yl)but-1-ynyl)-N,N-dimethyl-1H-indazole-3-carboxamide]
[1]; [11]
  Ki: 0.49 nM
[2]; [12]
  IC50: 85 nM
[3]; [13]
  IC50: 11.2 µM
[4]; [14]
  IC50: 1900 nM
[5]; [15]
  IC50: 747 nM
